From PMC9656319, “Pharmacokinetics and Tissue Distribution of Coumarins from Tagetes lucida in an LPS-Induced Neuroinflammation Model” (Plants, 2022)

Assays:
[1] = Pharmacokinetic study in plasma after oral hexanic extract of Tagetes lucida, healthy and LPS-damaged mice; type: in vivo, ICR mice; details: plasma; for Cmax / AUC(0-inf) / MRT / Tmax / half-life / AUC(0-t): ICR, mouse, po, 10 mg/kg; for Cmax / AUC(0-inf) / MRT / Tmax / half-life / AUC(0-t) / Cl/F: 10 mg/kg oral hexanic extract, mean ± SEM (n = 5); for Cmax: non-compartmental; for AUC(0-t): to 6 h
[2] = Tissue distribution in the brain after oral hexanic extract of Tagetes lucida, healthy and LPS-administrated mice; type: in vivo, ICR mice; details: after the initial absorption process
Description: After blood sampling, the mice were sacrificed in a chamber with chloroform by an overdose of anesthesia. The brain, kidney, and spleen were quickly removed and rinsed with saline solution, fresh weight was recorded, and immediately placed on ice. Subsequently, the organs were freeze-dried, grounded, and weighted. The lyophilized organs were individually suspended in methanol in a 1:1 volume: dry weight ratio for 24 h, then sonicated for 5 min and centrifuged at 14,000 rpm for 7 min. The supernatants were recovered in clean tubes and stored at −70 °C until their use.
One hundred microliters of plasma and organs samples, spiked with calibration and QC concentration or samples from the pharmacokinetic study, were mixed with 300 µL of acetonitrile containing the IS at 10 µg/mL for protein precipitation, and vortexed for 3 min. Then, 200 µL of dichloromethane were added, for liquid–liquid extraction of the bioactive compounds, and vortexed for 5 min. The mixture was centrifuged at 14,000 rpm for 10 min, and the extracted organic layers were placed in new tubes, until completely dry at room temperature. For quantitative analysis, samples were resuspended in 100 µL of methanol, transferred to sampling vials, and injected into the chromatographic system, described below.
A pharmacokinetic study was carried out in sixty mice, divided in six subgroups, according to sample collection times. An acute inflammation process by the intraperitoneal (i.p.) administration of LPS at 2 mg/kg was induced in half of the mice per group, while the other half received an i.p. injection of saline solution. Ten min after the damage was induced, the mice were administered with an oral dose of 10 mg/kg of the bioactive fraction dissolved in a 1% Tween-20 aqueous solution. […]
To evaluate the distribution in the tissues, bioactive coumarins were quantified in the lyophilized organs, and concentrations were adjusted to the volumes of liquid obtained by the difference between the dry and fresh weights of each tissue to simulate a distribution approximation of the compounds by tissue system.

[3] = Stability of the analytes in spiked plasma, brain, kidney and spleen matrices (autosampler, long-term, freeze-thaw); type: physicochemical, mice; details: for Stability Autosampler RE (%): processed samples in autosampler vials 24 h room temperature; for Stability Freeze-Thaw RE (%): three cycles (−4 °C to 25 °C); for Stability Long-Term RE (%): −70 °C for 30 days
Outline: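 QC samples at 0.3, 3 and 30 µg/mL of each coumarin spiked into blank plasma or brain, kidney and spleen supernatants. Stability covered 24 h at room temperature in autosampler vials, 30 days at −70 °C, and three freeze-thaw cycles (−4 °C to 25 °C) on consecutive days.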

[4] = parameters: method as in PMID 22465507; details: rats, distribution of SC in different organs; cited from earlier work

## COc1cc2ccc(=O)oc2cc1OC [SC, scoparone]
[1]; LPS-damaged ICR mice (LPS 2 mg/kg i.p.)
  Cmax: 1280 ± 110 ng/mL
[1]; LPS-damaged ICR mice
  AUC(0-inf): 2780 ± 210 ng·h/mL
  MRT: 2.26 ± 0.17 h
  Tmax: 0.7 ± 0.34 h
  half-life: 0.65 ± 0.06 h
  AUC(0-t): 2770 ± 210 ng·h/mL
  Cl/F: 36.52 ± 2.68 (mg/kg)/(μg/mL)/h
[1]; healthy ICR mice
  AUC(0-inf): 4030 ± 630 ng·h/mL
  MRT: 4.68 ± 1.16 h
  Tmax: 1.25 ± 0.25 h
  half-life: 2.88 ± 0.83 h
  Cmax: 970 ± 100 ng/mL
  AUC(0-t): 2870 ± 90 ng·h/mL
  Cl/F: 26.64 ± 3.00 (mg/kg)/(μg/mL)/h
[1]; LPS-treated mice, Figure 3b, 3c
  pharmacokinetic characteristics in words: fast distribution and subsequent elimination
[2]
  time at which the highest concentration in the brain tissue is reached: 15 min
[3]; brain, nominal 0.3 µg/mL
  Stability Autosampler RE (%): -2.15%
  Stability Freeze-Thaw RE (%): -1.98%
  Stability Long-Term RE (%): -0.19%
[3]; brain, nominal 3.0 µg/mL
  Stability Autosampler RE (%): 0.37%
  Stability Freeze-Thaw RE (%): -3.09%
  Stability Long-Term RE (%): -0.94%
[3]; brain, nominal 30.0 µg/mL
  Stability Autosampler RE (%): 4.78%
  Stability Freeze-Thaw RE (%): -2.00%
  Stability Long-Term RE (%): -4.75%
[3]; kidney, nominal 0.3 µg/mL
  Stability Autosampler RE (%): 7.01%
  Stability Freeze-Thaw RE (%): 2.62%
  Stability Long-Term RE (%): 3.92%
[3]; kidney, nominal 3.0 µg/mL
  Stability Autosampler RE (%): 5.72%
  Stability Freeze-Thaw RE (%): 1.51%
  Stability Long-Term RE (%): 2.63%
[3]; kidney, nominal 30.0 µg/mL
  Stability Autosampler RE (%): -0.35%
  Stability Freeze-Thaw RE (%): 0.49%
  Stability Long-Term RE (%): 4.36%
[3]; plasma, nominal 0.3 µg/mL
  Stability Autosampler RE (%): 10.18%
  Stability Freeze-Thaw RE (%): -14.02%
  Stability Long-Term RE (%): -3.50%
[3]; plasma, nominal 3.0 µg/mL
  Stability Autosampler RE (%): 8.27%
  Stability Freeze-Thaw RE (%): 2.70%
  Stability Long-Term RE (%): -14.30%
[3]; plasma, nominal 30.0 µg/mL
  Stability Autosampler RE (%): 4.74%
  Stability Freeze-Thaw RE (%): -0.10%
  Stability Long-Term RE (%): -8.41%
[3]; spleen, nominal 0.3 µg/mL
  Stability Autosampler RE (%): -7.70%
  Stability Freeze-Thaw RE (%): -9.57%
  Stability Long-Term RE (%): -9.67%
[3]; spleen, nominal 3.0 µg/mL
  Stability Autosampler RE (%): -6.71%
  Stability Freeze-Thaw RE (%): -2.65%
  Stability Long-Term RE (%): 2.22%
[3]; spleen, nominal 30.0 µg/mL
  Stability Autosampler RE (%): -0.99%
  Stability Freeze-Thaw RE (%): -4.22%
  Stability Long-Term RE (%): -2.12%
[4]
  quantification of the coumarin inside the brain: not possible to quantify
